Converted amounts (≈) assume the structure as drawn. Read-outs that look alike come from different tables or passages of the source.
What was measured:
HHV 8 in latent stage = assay: Detection of latent HHV 8 DNA by RT-PCR in BC3 cells; format: cell-based; settings: BC-3, 144 h, 6 days of culture, drug 100 µM, read-out: inhibition of viral DNA (antiviral activity)
Procedure: The antiviral activity of the sulphonamide compounds of the present invention was investigated using two different types of tests. In the first one, the DNA of HHV 8 in latent stage was detected by RT-PCR (Real Time- Polymerase Chain Reaction) (see Fig. 1) and in the second one, the LANA antigen was tested using a flow cytometric assay.

MDM2-p53 complex = target: T1, MDM2-p53 complex (Homo sapiens, UniProt Q00987); assay: ELISA-based P53-MDM2 binding assay
T1 construct: purchased Sigma
Procedure: In short, 96-well ELISA micro-plates (from Greiner Bio One, Austria) were coated for incubation overnight with 2 µg/mL p53 (human recombinant from Sigma) in PBS at 4 °C. The next day, the coating buffer was removed and the plates were incubated with Chemi-Blocker blocking buffer (from Merck-Millipore, Italy) for 2 hours at room temperature to block non-specific protein binding sites on the plate. […] The compounds under test were dissolved in DMSO (dimethyl sulfoxide, 5 mg/mL stock solution) and diluted in blocking buffer to obtain a final concentration of 50 µg/mL. The total incubation time of GST-MDM2 was 1 h. In order to evaluate the possible interactions of the compounds of the invention with, alternately, p53 and/or MDM2, the tests were conducted in three ways: a) pre-incubation with p53: the compounds were added to the coated micro-wells 30 min. before the GST-MDM2; b) pre-incubation with MDM2: the compounds were added to the GST-MDM2 solution for 30 minutes before adding to the wells; c) incubation after the formation of the p53-MDM2 complex: the compounds were added to the wells 30 minutes after treatment of GST-MDM2. After incubation, the plates were washed 4 times with PBST to remove the unbound MDM2 and incubated with a specific rabbit anti-GST monoclonal antibody (Sigma) diluted in 1/2000 blocking buffer for 1 h, followed by washing and incubation with a secondary immunoglobulin antibody conjugated with 1/200 anti-rabbit (horseradish) HR-peroxidase for 1 h (goat anti-rabbit IgG-HRP, Sigma). […] The absorbance was measured with a Microtiter plate reader (Model 680, from Bio-Rad, Hercules, CA) equipped with a 450 nm filter and the respective luminescence units (RLU) were measured. The inhibition percentage of the p53-MDM2 complex was calculated as follows: […]
Data are expressed as µg/mL ± SE average of three independent experiments.

KSHV virus [1] = settings: lytic stage; cited from earlier work
KSHV virus [2] = settings: latent stage; cited from earlier work
in vitro = settings: human, thp-1 cells
Procedure: The THP-1 cells were purchased from Life Technologies (UK) and were cultured in RPMI 1640 medium with 10% fetal bovine serum (FBS).
The cytotoxicity of the compounds under test was assessed by measuring the effect on the cell morphology and the cell viability in vitro. Cell mono-layers were prepared in 24-well tissue culture plates and exposed to various concentrations of the compounds being tested.
The plates were controlled by optical microscopy after 24, 48 and 72 h. Cytotoxicity was evaluated as morphologic changes (for example, rounding, contractions, detachments). The cell viability was determined by means of a tetrazolium-based colorimetric method using the compound 3-(4,5-dimethylthiazol-2-yl)-2,5-diphenyl-tetrazolium bromide (MTT). The cytotoxic dose of 50% (CD50) is the concentration of the compound which reduces the absorbency of the control sample by 50%.

[3] = Cytotoxicity (MTT cell viability) on HUVEC primary cells; format: cell-based; settings: human
Procedure: (§1) A stock of human HUVEC umbilical cord primary cells (Invitrogen Life Technologies, UK) was cultured in a culture medium M200 (Gibco, Life Technologies, UK) with low serum growth supplement (LSGS, Invitrogen Life Technologies, UK). The HUVEC cells were always kept in a semi-confluent state and were sub-cultured at least once a week. Prior to testing, the cells were sub-cultured no more than 3-5 times. The BC3 cells permanently infected with HHV 8 were cultured in a RPMI 1640 medium supplemented with a 10% fetal calf serum (FCS) (Invitrogen Life Technologies, UK). The BC3 cells were used to produce 100x concentrated stocks of HHV 8, as described in the literature. The pellets of the virus was suspended in RPMI, filtered through a 0.22 µm filter and stored at -80 °C until use. The quantitative analysis of viral genomes present in the stock preparation was obtained by a real-time polymerase chain reaction (qPCR). […] For infection of cells, approximately 5.0 x 10^4 HUVEC cells/mL were seeded in 12 multi-well plates. The cells were infected with HHV 8, concentrated to a multiplicity of at least 10-20 genomes per cell in an M200 containing 2 µg/mL polibrene (esadimetrin bromide) for 2 hours at 37 °C. […] Only cell mono-layers with at least 70-80% of HHV 8 infected cells were used for the experiments.

[4] = Cytotoxicity (MTT cell viability) on BC3 cells; format: cell-based; settings: human
Procedure: as §1

[5] = read-out: inhibition of MDM2-p53 complex formation

T1 sequence (Q00987 whole entry, one chain of several): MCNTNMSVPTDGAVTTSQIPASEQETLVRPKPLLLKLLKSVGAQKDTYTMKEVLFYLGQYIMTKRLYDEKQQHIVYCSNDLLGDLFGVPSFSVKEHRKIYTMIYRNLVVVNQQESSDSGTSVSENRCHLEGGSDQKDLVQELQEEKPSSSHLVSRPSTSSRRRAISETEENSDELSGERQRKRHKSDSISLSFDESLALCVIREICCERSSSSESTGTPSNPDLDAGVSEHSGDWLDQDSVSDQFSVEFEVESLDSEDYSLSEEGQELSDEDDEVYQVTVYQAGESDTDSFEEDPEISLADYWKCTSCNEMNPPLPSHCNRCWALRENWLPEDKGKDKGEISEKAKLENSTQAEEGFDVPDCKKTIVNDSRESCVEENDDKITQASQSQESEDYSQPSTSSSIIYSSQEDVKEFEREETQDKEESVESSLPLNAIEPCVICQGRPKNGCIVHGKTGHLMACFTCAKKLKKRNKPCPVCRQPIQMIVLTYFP

Structure (SMILES)	inhibition at 100 µM (HHV 8 in latent stage)	Action on the lytic virus (KSHV virus [1])	Action on the latent virus (KSHV virus [2])	also measured
Nc1ccc(S(N)(=O)=O)cc1 [SA4, sulphanilamide]	92%	–	–	inhibition at 50 µg/mL (MDM2-p53 complex; [5]): 50%
Nc1nc2c(ncn2COCCO)c(=O)[nH]1 [Acyclovir]	–	inhibition	no inhibition	–
[H]/N=C(/N)NS(=O)(=O)c1ccc(N)cc1 [SG3, sulphaguanidine]	52.3%	–	–	CC50 (in vitro): ~125 µg/mL (≈ 583 µM); CC50 [3]: ~500 µg/mL (≈ 2330 µM); CC50 [4]: 100 µg/mL (≈ 467 µM)
Nc1ccc(S(=O)(=O)Nc2nccs2)cc1 [ST5, sulfathiazole]	88.5%	–	–	CC50 (in vitro): ~30 µg/mL (≈ 117 µM); inhibition at 50 µg/mL (MDM2-p53 complex; added to the ELISA wells 60 minutes after the complex had formed, 50 µg/mL, p = < 0.01, read-out: breaking down the complex already formed): ~48%; inhibition at 50 µg/mL (MDM2-p53 complex; compound added before the formation of the complex, 50 µg/mL, read-out: inhibition of MDM2-p53 complex formation): ~70%; CC50 [3]: ~250 µg/mL (≈ 979 µM); CC50 [4]: 100 µg/mL (≈ 393 µM)
Cc1cc(NS(=O)(=O)c2ccc(N)cc2)no1 [BC6, sulfamethoxazole]	93%	–	–	inhibition at 50 µg/mL (MDM2-p53 complex; [5]): 56%
CC1(C)[C@@H](O[C@H]2O[C@H](C(=O)O)[C@@H](O)[C@H](O)[C@H]2O[C@@H]2O[C@H](C(=O)O)[C@@H](O)[C@H](O)[C@H]2O)CC[C@]2(C)[C@H]3C(=O)C=C4[C@@H]5C[C@@](C)(C(=O)O)CC[C@]5(C)CC[C@@]4(C)[C@]3(C)CC[C@@H]12 [Glycyrrhizic acid]	–	inhibition	Apoptosis	–
O=C(O)P(=O)(O)O [Foscarnet]	–	inhibition	no inhibition	–
